These results are taken from patent US9486457B2, “Use of cinnabarinic acid as a modulator of immune responses in autoimmune disorders” (The Regents of the University of California, priority 2010, dated 2016).

In one assay the target is T1, AHR (Mus musculus, UniProt P30561).
T1 construct: murine hepatoma cell line stably transfected with an AhR-responsive (AhR-eGFP) reporter construct; endogenous in cells
T1 sequence (P30561 10-848): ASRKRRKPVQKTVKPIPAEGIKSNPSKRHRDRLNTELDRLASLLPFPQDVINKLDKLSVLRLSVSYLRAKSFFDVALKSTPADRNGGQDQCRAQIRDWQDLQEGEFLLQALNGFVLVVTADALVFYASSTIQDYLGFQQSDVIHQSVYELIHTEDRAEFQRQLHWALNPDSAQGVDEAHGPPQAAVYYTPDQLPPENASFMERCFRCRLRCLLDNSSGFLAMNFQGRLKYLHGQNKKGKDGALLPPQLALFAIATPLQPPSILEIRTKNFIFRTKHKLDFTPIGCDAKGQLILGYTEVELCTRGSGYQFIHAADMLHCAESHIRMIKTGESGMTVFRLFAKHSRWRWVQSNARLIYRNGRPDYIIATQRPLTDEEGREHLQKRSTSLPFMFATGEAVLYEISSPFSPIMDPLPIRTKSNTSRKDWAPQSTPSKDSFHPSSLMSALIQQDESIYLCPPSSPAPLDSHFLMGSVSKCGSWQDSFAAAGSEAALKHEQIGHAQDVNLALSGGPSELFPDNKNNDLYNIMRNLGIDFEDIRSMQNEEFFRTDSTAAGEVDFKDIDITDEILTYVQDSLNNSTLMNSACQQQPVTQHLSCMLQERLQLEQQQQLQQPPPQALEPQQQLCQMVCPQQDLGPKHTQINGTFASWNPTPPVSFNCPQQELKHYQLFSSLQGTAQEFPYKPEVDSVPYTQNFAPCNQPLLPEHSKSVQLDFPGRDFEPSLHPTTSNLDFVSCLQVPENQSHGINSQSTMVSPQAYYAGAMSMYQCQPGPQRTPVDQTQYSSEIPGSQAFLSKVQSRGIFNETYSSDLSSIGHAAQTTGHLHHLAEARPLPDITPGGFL
Briefly: AHR-responsive (dioxin responsive element) GFP reporter assay in H1G1 mouse hepatoma cells. Format: cell-based. The conditions noted are these: for AHR agonist activity (activation of AHR-responsive reporter): agonist mode; for AHR antagonist activity (block of AHR activation by TCDD): antagonist mode, co-treatment with TCDD, H1G1 cells. An excerpt:
(§1) We performed a precursory screen of all tryptophan metabolites including both 3-HKA and 3-HAA to bind to and act as agonists or antagonists of the AHR using two separate assays. First we examined the ability of 3-HKyn, 3-HAA, and PA to displace TCDD binding to the human AHR protein in vitro (20). […] We also measured AHR activation using a mouse hepatoma cell line (H1G1) that stably expresses a green fluorescent protein (GFP) reporter construct downstream of a series of dioxin responsive elements (FIG. 7A) (21).

The target in the next assay is T2, human AHR protein (Homo sapiens, UniProt P35869).
T2 sequence (P35869 11-848): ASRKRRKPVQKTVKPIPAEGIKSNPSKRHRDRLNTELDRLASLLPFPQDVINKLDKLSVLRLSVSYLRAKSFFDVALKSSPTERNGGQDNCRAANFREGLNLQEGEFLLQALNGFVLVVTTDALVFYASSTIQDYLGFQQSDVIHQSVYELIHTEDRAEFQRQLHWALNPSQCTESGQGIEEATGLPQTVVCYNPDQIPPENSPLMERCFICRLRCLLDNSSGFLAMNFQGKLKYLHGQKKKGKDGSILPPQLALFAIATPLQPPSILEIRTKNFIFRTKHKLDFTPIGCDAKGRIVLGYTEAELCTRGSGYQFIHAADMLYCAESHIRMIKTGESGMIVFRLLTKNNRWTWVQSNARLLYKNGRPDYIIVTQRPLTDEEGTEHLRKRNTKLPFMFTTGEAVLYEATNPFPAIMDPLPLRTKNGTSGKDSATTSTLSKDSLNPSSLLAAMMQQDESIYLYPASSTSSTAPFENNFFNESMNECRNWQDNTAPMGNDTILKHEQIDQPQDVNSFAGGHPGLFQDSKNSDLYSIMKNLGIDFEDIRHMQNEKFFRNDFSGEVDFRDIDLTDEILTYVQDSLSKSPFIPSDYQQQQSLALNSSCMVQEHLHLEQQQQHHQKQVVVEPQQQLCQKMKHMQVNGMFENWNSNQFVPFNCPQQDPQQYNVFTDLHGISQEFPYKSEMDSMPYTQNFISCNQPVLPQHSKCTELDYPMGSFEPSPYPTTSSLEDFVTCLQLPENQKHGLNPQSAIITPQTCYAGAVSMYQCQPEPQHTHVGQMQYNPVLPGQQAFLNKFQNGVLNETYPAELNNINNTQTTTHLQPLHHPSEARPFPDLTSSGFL
Briefly: Displacement of TCDD binding to in vitro translated human AHR protein. The note with it: cell-free.
Source text: as §1

The test system of assay [1] is stimulated human CD4+ T cells. Description: IL-22 expression by CD4+ T cells in stimulated human PBMCs / T cells. The note with it: for IL-22 expression by CD4+ T cells (Th22 differentiation): stimulated human PBMCs / T cells, 100 μM for 3-HKyn and 3-HAA in FIG. 6A. In kind it is cell-based. An excerpt:
FIG. 6: 3-HKyn and 3-HAA promote IL-22 expression by stimulated human CD4+ T cells. […] (C) IL-22 induction by 3-HAA is blocked by inhibition of the AhR pathway.
This is highlighted by the observation that AHR−/− mice retain the ability to generate some Th17 cells, but are incapable of generating cells that express IL-22 (16-18). […] To screen for the ability of tryptophan metabolites generated downstream of IDO to activate the AHR, we stimulated human T cells in vitro in the presence of different tryptophan metabolites (3-Hydroxykynurenine (3-HKA), 3-Hydroxyanthranilic Acid (3-HAA), Picolinic Acid (PA), and Quinolinic Acid (QA)) to assess whether any promoted the expansion of CD4+ T cells secreting IL-22. […] To determine whether the induction of IL-22 within this population was dependent upon AHR activation, we next stimulated human T cells in the presence or absence of a potent AHR antagonist (CH-223191) and monitored the induction of IL-22.

The test system of the next assay is human naïve CD4+ T cells. Description: IL-22 induction in cultured human naïve CD4+ T cells stimulated with anti-CD3/anti-CD28 under Th17 polarizing conditions. The conditions noted are these: CA 25 μM in FIG. 8D. In kind it is cell-based. The source says: This is AHR dependent as inclusion of an AHR antagonist fully abrogated effect.
FIG. 8: CA is an endogenous AhR agonist generated by oxidative dimerization of 3-HAA. (A) An alternative pathway of 3-HAA metabolism leads to the generation of CA either by non-enzymatic (oxidation) or enzymatic (laccase, ceruloplasmin) processes. CA is structurally similar to the synthetic AhR ligand TCDD. […] Data are representative of three similar experiments.

In assay [2] the test system is naïve (CD45RA+CCR7+CD95−CD25−) CD4+ T cells. Description: Foxp3 induction in stimulated naïve CD4+ T cells. Format: cell-based, human. The source says:
FIG. 9: The synthetic 3-HAA analogue 3,4 DAA (Tranilast) is an AhR antagonist and promotes the induction of Foxp3 by stimulated CD4+ T cells. (A) 3,4 DAA shares some structural similarities to 3-HAA (highlighted region).
Therefore we asked whether T cells treated with 3,4 DAA might be prompted to differentiate into Treg cells through upregulation of the transcription factor Foxp3 (26).

For assay [3], the system named is experimental allergic encephalomyelitis (EAE). The note with it: literature reports (refs 15, 25 as cited in text); cited from earlier work.
Assay [4] has as its system stimulated human CD4+ T cells. The note with it: literature (ref 19); cited from earlier work.

“Also recorded” adds a separate entry of the source.

Consider `Nc1c(O)cccc1C(=O)O` [3-HAA, 3-Hydroxyanthranilic Acid], for which, on AHR, the “AHR agonist activity (activation of AHR-responsive reporter)” value (from here on “AHR agonist activity”) was “modest increase in AHR activity using 3-HAA as an agonist, this failed to reach significance; also recorded: minimal activation of the AhR; also recorded: no activity in short-term assays”. In addition, on human AHR protein, the “displacement / inhibition of TCDD binding to human AHR” value (shortened to “displacement / inhibition”) is reported as “modest binding of 3-HAA only at very high concentrations”. In assay [1] (different donors), the “expansion of Th22 cells” value is at least 2 fold. Moreover, the “IL-22 expression by CD4+ T cells (Th22 differentiation)” value in assay [1] is on record as “able to promote the differentiation of Th22 cells; also recorded: leads to the expansion of a population of cells expression the cytokine IL-22; also recorded: promotes IL-22 expression in dose-dependent manner”. Further, in the assay with human naïve CD4+ T cells, the IL-22 induction entry was “only had minimal effects”. The “Foxp3 expression (frequency of CD4+Foxp3+ T cells)” value in assay [2] (stimulated naïve CD4+ T cells in vitro) is listed as “promotes Foxp3 upregulation but to a lesser extent”.
As to `Nc1c(O)cccc1C(=O)CC(N)C(=O)O` (stereo not shown) [3-HKyn, 3-Hydroxykynurenine], at AHR, the “AHR agonist activity” value is listed as “none of the other metabolites (3-HKyn, PA, QA) were found to have any activity as agonists or antagonists”. Moreover, the “AHR antagonist activity (block of AHR activation by TCDD)” value (“AHR antagonist activity” for short) on AHR is listed as “none of the other metabolites (3-HKyn, PA, QA) were found to have any activity as agonists or antagonists”. Also, the “displacement / inhibition” value at human AHR protein is “unable to measure any significant displacement”. Moreover, the “IL-22 expression by CD4+ T cells (Th22 differentiation)” value in assay [1] is “leads to the expansion of a population of cells expression the cytokine IL-22”; in assay [1] (listed as 3-HKA), “able to promote the differentiation of Th22 cells”.
Turning to `Nc1c(C(=O)O)ccc(F)c1O` [4-F-3-HAA, 4-fluoro-3-hydroxythranilic acid], the “effect of HAAO inhibition on the ability of 3-HAA to induce IL-22” value in assay [1] (in the presence of different concentrations of 3-HAA) is “stark increase in the ability of 3-HAA to induce IL-22”.
Turning to `Cc1ccccc1N=Nc1ccc(NC(=O)c2ccnn2C)c(C)c1` [CH-223191], the entries for the “AHR antagonist activity” value on AHR and on AHR (listed as CH223191) were “potent antagonist” and “positive control”, respectively. Besides, the “block of IL-22 induction by 3-HAA” value in assay [1] (AHR antagonist added with 3-HAA) is given as “significantly abolish IL-22 induction by 3-HAA”.
In the case of `O=Cc1c2c(cc3c1=Nc1ccccc1-3)=Nc1ccccc1-2` [FICZ, 6-formylindolo[3,2-b]carbazole], in assay [3], the “effect on EAE as previously reported” value was “increased disease severity”. In addition, in assay [4], the “frequency of CD4+ T cells that produce IL-22 (Th22), as previously reported” value is given as “promoted a significant increase in the frequency of CD4+ T cells that produced IL-22”.
`O=C(O)c1ccccn1` [PA, Picolinic Acid]: on AHR, the “AHR agonist activity” value is listed as “none of the other metabolites (3-HKyn, PA, QA) were found to have any activity as agonists or antagonists” and the “AHR antagonist activity” value is recorded as “none of the other metabolites (3-HKyn, PA, QA) were found to have any activity as agonists or antagonists”. For the same compound, the “displacement / inhibition” value at human AHR protein is “unable to measure any significant displacement”.
Turning to `O=C(O)c1cccnc1C(=O)O` [QA, Quinolinic Acid], on AHR, the “AHR agonist activity” value is “none of the other metabolites (3-HKyn, PA, QA) were found to have any activity as agonists or antagonists” and the “AHR antagonist activity” value is listed as “none of the other metabolites (3-HKyn, PA, QA) were found to have any activity as agonists or antagonists”.
As to `NC(=O)c1ccc(-c2nc(-c3ccc4c(c3)OCO4)c(-c3ccccn3)[nH]2)cc1` [SB-431542], in assay [2] (TGFβ signaling inhibitor added), the “reversal of Foxp3 upregulation by 3,4 DAA and 3-HAA” value was “reversed the ability of 3,4 DAA and 3-HAA to upregulate Foxp3”.
As for `Clc1cc2c(cc1Cl)Oc1cc(Cl)c(Cl)cc1O2` [TCDD, 2,3,7,8-tetrachlorodibenzodioxin], the “effect on EAE as previously reported” value in assay [3] is reported as “protective”.
Take `NCCc1c[nH]c2ccccc12` [Tryptamine, tryptamine]: at AHR, the “AHR agonist activity” value is recorded as “positive control”.
